Assay results from the NIST ThermoML archive (doi:10.1016/j.fluid.2013.05.012).
Values joined by “and” are separate entries in the source; they are usually repeats but may differ in a detail not shown here. Equal values may be shown once. ± gives the expanded uncertainty stated by the source.

Details: 101.33 kPa, Liquid; for mass density: Vibrating tube method; for viscosity: Vibrating wire viscometry

| Structure (SMILES) | mass density (288.15 K) [kg/m3] | viscosity (293.14 K) [mPa·s] | mass density (293.16 K) [kg/m3] | mass density (298.16 K) [kg/m3] | viscosity (298.18 K) | viscosity (303.13 K) [mPa·s] | mass density (303.15 K) | mass density (313.15 K) [kg/m3] | mass density (318.15 K) | viscosity (323.1 K) [mPa·s] | mass density (323.15 K) [kg/m3] | mass density (328.15 K) [kg/m3] | mass density (293.15 K) [kg/m3] | mass density (295.65 K) | mass density (298.15 K) | viscosity (298.2 K) [mPa·s] | mass density (300.65 K) | mass density (305.65 K) [kg/m3] | mass density (308.15 K) | mass density (310.65 K) [kg/m3] | also measured |
| --- | --- | --- | --- | --- | --- | --- | --- | --- | --- | --- | --- | --- | --- | --- | --- | --- | --- | --- | --- | --- | --- |
| CCCCCC[n+]1ccn(C)c1.O=S(=O)([N-]S(=O)(=O)C(F)(F)F)C(F)(F)F | 1381.24 ± 1.1 | 90.27 ± 2.1 | 1376.63 ± 1.1 | 1372.04 ± 1.1 | 70.9 ± 1.5 mPa·s and 70.95 ± 1.5 mPa·s | 56.93 ± 1.2 | 1367.46 ± 1.1 kg/m3 | 1358.32 ± 1.1 | 1353.76 ± 1.1 kg/m3 | 26.73 ± 0.56 | 1349.23 ± 1.1 | 1344.72 ± 1.1 | – | – | – | – | – | – | – | – | mass density (303.16 K): 1367.45 ± 1.1 kg/m3; viscosity (308.13 K): 46.15 ± 0.97 mPa·s; mass density (308.16 K): 1362.88 ± 1.1 kg/m3; viscosity (313.09 K): 38.05 ± 0.8 mPa·s; viscosity (318.1 K): 31.74 ± 0.67 mPa·s; mass density (318.16 K): 1353.77 ± 1.1 kg/m3; mass density (323.16 K): 1349.24 ± 1.1 kg/m3 |
| CCOS(=O)(=O)[O-].CCn1cc[n+](C)c1 [1-ethyl-3-methylimidazolium ethyl sulfate] | 1245.23 ± 1.1 | 128.2 ± 3.2 | – | – | – | – | 1235.08 ± 1.1 kg/m3 and 1235.06 ± 1.1 kg/m3 | – | 1224.95 ± 1.1 kg/m3 | 35.37 ± 0.74 | 1221.6 ± 1.1 | 1218.26 ± 1.1 | 1241.85 ± 1.1 | 1240.17 ± 1.1 kg/m3 and 1240.15 ± 1.1 kg/m3 | 1238.47 ± 1.1 kg/m3 and 1238.45 ± 1.1 kg/m3 | 98.63 ± 2.3 | 1236.77 ± 1.1 kg/m3 and 1236.76 ± 1.1 kg/m3 | 1233.38 ± 1.1 | 1231.69 ± 1.1 kg/m3 | 1230.01 ± 1.1 | mass density (288.16 K): 1245.23 ± 1.1 kg/m3; mass density (290.64 K): 1243.55 ± 1.1 kg/m3; mass density (290.65 K): 1243.55 ± 1.1 kg/m3; mass density (293.14 K): 1241.85 ± 1.1 kg/m3; viscosity (298.19 K): 98.87 ± 2.3 mPa·s; viscosity (303.16 K): 77.83 ± 1.7 mPa·s; viscosity (308.19 K): 62.54 ± 1.3 mPa·s; mass density (310.64 K): 1230.01 ± 1.1 kg/m3; mass density (313.14 K): 1228.32 ± 1.1 kg/m3; viscosity (313.14 K): 51.1 ± 1.1 mPa·s; mass density (315.65 K): 1226.63 ± 1.1 kg/m3 and 1226.64 ± 1.1 kg/m3; viscosity (318.14 K): 42.22 ± 0.89 mPa·s; mass density (320.64 K): 1223.27 ± 1.1 kg/m3 and 1223.28 ± 1.1 kg/m3; mass density (323.14 K): 1221.6 ± 1.1 kg/m3; mass density (325.64 K): 1219.92 ± 1.1 kg/m3; mass density (325.65 K): 1219.92 ± 1.1 kg/m3 |
| CCOS(=O)(=O)[O-].CC[n+]1cccc(C)c1 [1-ethyl-3-methylpyridinium ethylsulfate] | – | – | 1225.08 ± 1.1 | 1221.8 ± 1.1 | 133.7 ± 3.4 mPa·s | 102.1 ± 2.4 | 1218.5 ± 1.1 kg/m3 | 1211.91 ± 1.1 | 1208.63 ± 1.1 kg/m3 and 1208.64 ± 1.1 kg/m3 | – | – | – | 1225.08 ± 1.1 | 1223.43 ± 1.1 kg/m3 | 1221.79 ± 1.1 kg/m3 | 133.8 ± 3.5 | 1220.15 ± 1.1 kg/m3 | 1216.85 ± 1.1 | 1215.21 ± 1.1 kg/m3 and 1215.2 ± 1.1 kg/m3 | 1213.56 ± 1.1 | viscosity (293.13 K): 181.5 ± 5.2 mPa·s; mass density (295.64 K): 1223.43 ± 1.1 kg/m3; mass density (300.66 K): 1220.15 ± 1.1 kg/m3; mass density (303.14 K): 1218.51 ± 1.1 kg/m3; mass density (305.64 K): 1216.85 ± 1.1 kg/m3; viscosity (308.16 K): 79.18 ± 1.7 mPa·s; mass density (310.66 K): 1213.56 ± 1.1 kg/m3; viscosity (313.14 K): 62.73 ± 1.3 mPa·s; mass density (315.65 K): 1210.27 ± 1.1 kg/m3; mass density (315.66 K): 1210.27 ± 1.1 kg/m3; viscosity (318.08 K): 50.65 ± 1.1 mPa·s; mass density (320.65 K): 1207 ± 1.1 kg/m3 |
